Series [1] has as its system LALF binding to immobilized lipid A. Briefly: Competition of LALF:lipid A binding by peptides (ELISA). On the procedure:
(§1) To investigate the specificity of peptides in binding lipid A and LPS, competition experiments with known endotoxin binding proteins such as LALF and LBP and the antibiotic polymyxin B are carried out. Thus an ELISA plate (NUNC, Polysorp 96U) is coated for 90 min. at 37° C. with 100 μl lipid A in PBS (0.25-0.3 μg/ml) or lipopolysaccharide in PBS (0.25-0.3 μg/ml). All further steps are done at room temperature. After washing and blocking (10 min.) with PBS/0.1% Tween, the solid phase is incubated for 1 hr with 100 μl or increasing amounts (0.01 μg/ml-100 μg/ml in PBS/0.1% Tween) of unlabelled or biotin-labelled peptides mixed with an endotoxin binding protein (LALF or LBP; 0.2 μg/ml in PBS/0.1% Tween). After washing with PBS/0.1% Tween, the ELISA plate is incubated for 45 min. with 100 μl of a rabbit antiserum against LALF or LBP, respectively. After washing with PBS/0.1% Tween the ELISA plate is incubated with 100 μl anti-rabbit antibody conjugated to alkaline phosphatase (SIGMA; 1:10000 diluted in PBS/0.1% Tween) and washed with PBS/0.1% Tween and 100 mM Tris pH 9.5. p-Nitrophenyl-phosphate (2 mg/ml in 100 mM Tris pH 9.5) is used as a substrate for alkaline phosphatase. The ELISA is read at 405 nm.

The subject of series [2] is biotin-labelled LBP-14 binding to immobilized lipid A. Briefly: Competition of LBP14:lipid A binding by peptides and proteins (ELISA). The following applies: unlabelled competitor in increasing amounts, biotin-LBP-14 1 μg/ml; FIG. 16; very similar result with LALF-14. On the procedure: An ELISA plate (NUNC, Polysorp 96U) is coated for 90 min. at 37° C. with 100 μl lipid A in PBS (0.2-0.3 μg/ml). All further steps are done at room temperature. After washing and blocking (10 min.) with PBS/0.1%. Tween, the solid phase is incubated for 1 hr with 100 μl of increasing amounts (0.01 μg/ml-10 μg/ml) of unlabelled peptides or proteins mixed with a biotin-labelled peptide (1 μg/ml in PBST/0.1% Tween). After washing with PBS/0.1% Tween, 100μl streptavidin conjugated to alkaline phosphatase (Boehringer Mannheim GmbH, 1:10000 diluted in PBS/0.1% Tween) is added to the wells. This incubation is followed by washing with PBS/0.1% Tween and 100 mM Tris pH 9.5. p-Nitrophenyl-phosphate (2 mg/ml in 100 mM Tris pH 9.5) is used as a substrate for alkaline phosphatase. The ELISA is read at 405 nm.
CD14 is used to compete the peptide-lipid A binding. The principle of such a binding assay is the same as for the LALF- or LBP-lipid A competition assays in which a constant amount of detectable peptide or protein is competed by an increasing amount of another peptide or protein. Instead of detecting LALF, bound biotin-labelled peptide is detected with streptavidin conjugated to alkaline phosphatase, and the labelled peptide concentration is kept constant while the unlabelled peptide or protein amount is increased. […] A very similar result is observed when LALF-14 is used instead of LBP-14.
On the technique in general: In an ELISA, binding on a coated surface is turned into a signal by an enzyme label.

The nature of series [3]: Chromogenic Limulus amebocyte lysate test. Format: biochemical, E. coli. The following applies: peptides 0.1-10 μg/ml preincubated with LPS 15 min at 37° C.; FIG. 19. On the procedure:
(§2) The Limulus amebocyte Lysate test (gelling assay; sensitivity 0.125 EU/ml) and the Chromogenic Limulus amebocyte Lysate test (sensitivity 0.06 EU/ml) are performed according to the manufacturer's instruction (Bio*Whittaker, Walkersville, Md.) using E. coli 055:B5 lipopolysaccharide. For neutralisation of LPS, peptides (0.1-10 μg/ml) and LPS are incubated for 15 min. at 37° C. and then added to the Limulus lysate. […] The chromogenic assay allows quantification of the lipopolysaccharide neutralizing capacity of the peptides.

The subject of series [4] is LALF binding to immobilized lipid A. Briefly: Influence of serum on the competition of LALF:lipid A binding by peptide. The following applies: 100 μg/ml peptide, 10% fetal calf serum; FIG. 18. On the procedure:
as §1, with “nm. […]” for “nm.”

The nature of series [5]: LPS binding as determined by ELISA (general description). Further details: species or system E. coli. From the text:
(§3) In a still further preferred embodiment, the present invention provides for peptides which effectively bind to LPS and are constrained to adopt a circular conformation by an intramolecular bridge. In this context, the circular conformation can be brought about by any one of a number of intramolecular bridges. Preferably, the peptide may incorporate two cysteine residues between which a disulfide bond is formed by an oxidation reaction. Alternatively, the two cysteines may be linked through a homo-bifunctional cross-linking reagent, such as a bis-maleimide. Particularly preferred are the cyclic peptides comprising amino acids 31 to 52 and amino acids 38 to 45 of LALF, each stabilized by a disulfide bond formed between two cysteine residues, producing a cyclic conformation (FIG. 2). […] This defines a minimal LPS-binding domain to be the peptide spanning amino acids 38 to 45 of LALF. […] Thus, particularly preferred are also the peptides spanning amino acids 90 to 101 and amino acids 90 to 97 of LBP (FIG. 3). […] This defines a second minimal LPS binding domain to be the peptide spanning amino acids 90 to 97 of LBP. […] Particularly preferred are the peptides spanning amino acids 90 to 97 and amino acids 90 to 101 of BPI (FIG. 4). This defines a third minimal LPS-binding domain to be the peptide spanning amino acids 90 to 97 of BPI.

Series [6] is described as follows: Binding of fluorescein-labelled LPS to biotinylated peptides immobilized via streptavidin. Further details: species or system Salmonella enteriditis. The following applies: peptide 1 or 10 μg/ml on streptavidin plate, FITC-LPS 0.5 μg/ml; FIG. 12. On the procedure: To investigate the potential use of multimeric peptides for increasing the binding to LPS, individual peptides are coated on an ELISA plate to high surface concentrations. Immobilization is performed by first coating the plate with strepravidin and then binding the peptides via their N-terminal biotin groups. Thus, 100 μl streptavidin (Boehringer Mannheim GmbH; 10 μg/ml in PBS) is used for coating followed by washing, blocking (10 min.) with PBS/0.1% Tween and a 30 min. incubation with 100 μl of purified synthetic peptides (1 μg/ml or 10 μg/ml in PBST) labelled at the N-terminus with biotin. After washing with PBS/0.1% Tween the peptides are incubated for 1 hr With FITC-labelled LPS (SIGMA; Salmonella enteriditis; 0.5 μg/ml in PBS/0.1% Tween). After washing with PBS/0.1% Tween, the ELISA plate is incubated with 100 μl of an anti-FITC antibody conjugated to alkaline phosphatase (SIGMA; 1:2500 diluted in PBS/0.1% Tween) and washed with PBS/0.1% Tween and 100 mM Tris pH 9.5. p-Nitrophenyl-phosphate (2 mg/ml in 100 mM Tris pH 9.5) is used as a substrate for alkaline phosphatase. The ELISA is read at 405 nm. All steps are done at room temperature.

A short description of series [7]: ELISA binding of biotinylated peptides to immobilized lipid A. The following applies: biotinylated peptide 0.1-10 μg/ml on immobilized lipid A; FIG. 8, 9.
Experimental: The lipid A-binding activities of the peptides are shown in an ELISA format as follows. An ELISA plate (NUNC, Polysorp 96U) is coated for 90 minutes at 37° C. with 100 μl lipid A in PBS (0.25-1 μg/ml). All further steps are done at room temperature. After washing and blocking (10 min.) with PBS/0.1% Tween, the solid phase is incubated for 1 hour with 100 μl of increasing amounts (0.1 μg/ml-10 μg/ml) of purified synthetic peptides (dissolved in PBST) labelled at the N-terminus with biotin. After washing with PBS/0.1% Tween, the bound peptides are incubated for 45 min. with 100 μl streptavidin conjugated to alkaline phosphatase (Boehringer Mannheim GmbH; 1:10000 diluted in PBS/0.1% Tween), followed again by washing with PBS/0.1% Tween and 100 mM Tris pH 9.5. p-Nitrophenylphosphate (2 mg/ml in 100 mM Tris pH 9.5) is used as a substrate for alkaline phosphatase. The ELISA is read at 405 nm.
To investigate the importance of the constrained conformation for high affinity peptide-lipid A binding, binding activity of cyclic and the corresponding linear peptides is compared.
Series [8] is described as follows: LPS binding as shown by ELISA (general description). The following applies: FIG. 2-7 peptides.
Source text: as §3

Series [9] can be described thus: Limulus amebocyte lysate test (gelling assay). Format: biochemical, E. coli. The following applies: peptides 0.1-10 μg/ml preincubated with LPS 15 min at 37° C.; FIG. 19. On the procedure: as §2
The test system of series [10] is LBP binding to immobilized lipid A. Briefly: Competition of LBP:lipid A binding by peptides (ELISA). The following applies: 100 μg/ml peptide; FIG. 15. On the procedure: as §1
The ability of the peptides to compete with LBP for binding to LPS is determined in the same way as in Example 5, except that LALF is replaced with LBP (see FIG. 15). […]

Series [11] has as its system monocytes (LPS Re-LPS F515 induced TNF release). As to the kind of experiment: Inhibition of LPS-mediated TNF release by monocytes. It counts as cell-based, human. The following applies: peptide 10 μg/ml preincubated with LPS; TNF by ELISA; FIG. 20. On the procedure:
Monocytes are purified with a ficoll gradient (d=1.077) from whole blood by centrifugation for 20 min. at 2200 rpm at room temperature. Ficoll is removed by washing 3 times with PBS. Purified monocytes are counted and diluted to 2×10^6 cells/900 μl in medium (RPMI+) or medium with 0.1%-10% human serum. For TNF induction, 2×10^6 monocytes (in 900 μl medium or medium with serum) and 100 μl of LPS (Re-LPS F515; 0.1 ng/ml-10 ng/ml) or mixtures of LPS with peptides (10 μg/ml) (preincubated for 15 min. at 37° C.) are incubated in a 24 well plate (NUNC) for 2 to 5 hr. The supernatant is taken off and spun twice for 2 min. at 1500 rpm, once for 5 min. at 15000 rpm and stored at −20° C. for TNF determination. The induced TNF is assayed by ELISA according to the manufacturer's instruction (BioSource International, California) using a 50 μl sample of thawed supernatant.

Where [12] appears, read: peptide 0.01-100 μg/ml, LALF 0.2 μg/ml, FIG. 13, 14.

Bridge positions count the residues as written; N and C are the ends. Peptide text beside a SMILES is read from it. * marks the point of attachment. Biotin = O=C1N[C@H]2[C@H](CS[C@H]2CCCCC(=O)*)N1

For lysozyme, the “competition with LALF for lipid A binding” value in series [1] (at 100 μg/ml peptide, FIG. 14) is recorded as 10%; in series [1] (setting [12]), “not able to compete with LALF”. Besides, the “competition of LBP-14 binding to lipid A” value in [2] is listed as “background determined by lysozyme as competitor”.

Consider “I-K-T-K-K-F-L-K-K-T (IKTKKFLKKT) [PolP-1]”, for which, in series [3], the “inhibition of the chromogenic Limulus amebocyte lysate assay” value is reported as “up to 25%”. Also, in series [1] (setting [12]), the “competition with LALF for lipid A binding” value is “hardly competes with LALF for lipid A binding”. Further, the “competition with LALF for lipid A binding in the presence of 10% serum” value in [4] is “only inhibit slightly above background”. For the same compound, the “competition of LBP-14 binding to lipid A” value in series [2] is recorded as “only slightly above the background determined by lysozyme as competitor”.

As for `CC[C@H](C)[C@@H]1NC(=O)[C@H](CCCNC(=N)N)NC(=O)[C@H](Cc2ccc(O)cc2)NC(=O)[C@H](Cc2c[nH]cn2)NC(=O)[C@@H](N)CSSC[C@@H](C(=O)O)NC(=O)[C@H](Cc2c[nH]c3ccccc23)NC(=O)[C@H](Cc2ccccc2)NC(=O)[C@H](CCCCN)NC(=O)CNC(=O)[C@H](CCCCN)NC(=O)[C@H](Cc2ccc(O)cc2)NC(=O)[C@H](CCCCN)NC(=O)[C@H](Cc2c[nH]c3ccccc23)NC(=O)[C@H](CCCCN)NC(=O)[C@H](CC(C)C)NC(=O)[C@H](CCCNC(=N)N)NC(=O)[C@H](CCCNC(=N)N)NC(=O)[C@H](Cc2ccccc2)NC(=O)[C@H]([C@@H](C)O)NC(=O)[C@@H]2CCCN2C(=O)[C@H](CCCCN)NC1=O` [amino acids 31 to 52 of LALF] (H-CHYRIKPTFRRLKWKYKGKFWC-OH; disulfide 1-22; N-terminus and C-terminus assumed), the “binding to E. coli EH 100 LPS as determined by ELISA” value in series [5] is given as “Both bind lipid A and, additionally, two different types of LPS-molecules”.

For the compound “Biotin-Z-K-C-F-T-R-R-A-K-W-R-C (Z=β-alanine) [MS-21]”, in [6], the “binding of FITC-labelled LPS to immobilized peptide” value is on record as “highest binding affinity to LPS”. Moreover, the “competition with LALF for lipid A binding” value in [1] (at 100 μg/ml peptide, FIG. 14) is recorded as roughly 80%. The “lipid A-binding activity (ELISA)” value in series [7] was “binds lipid A weaker than LALF-14 and LBP-14, but slightly better than BPI-14”.

Take “amino acids 90 to 97 of BPI: peptide spanning amino acids 90 to 97 of BPI, cyclic by disulfide bond between two cysteines”: the “binding to LPS as shown by ELISA” value in series [8] is listed as “able to bind LPS”.

Turning to “Biotin-Z-C-K-W-K-I-R-K-F-S-C-N (Z=β-alanine) [MS-22]”, the “lipid A-binding activity (ELISA)” value in series [7] is “binds lipid A clearly above background level and with a similar activity to LBP-10-1, but weaker than MS-21”.

For `CC(C)C[C@@H]1NC(=O)[C@H](CCCNC(=N)N)NC(=O)[C@H](CCCNC(=N)N)NC(=O)[C@H](Cc2ccccc2)NC(=O)[C@H]([C@@H](C)O)NC(=O)[C@@H](NC(=O)CCCC[C@@H]2SC[C@@H]3NC(=O)N[C@@H]32)CSSC[C@@H](C(=O)O)NC(=O)[C@H](CCCCN)NC(=O)[C@H](Cc2c[nH]c3ccccc23)NC(=O)[C@H](CCCCN)NC1=O` [LALF-10] (Biotin-CTFRRLKWKC-OH; disulfide 1-10), in series [5], the “binding to E. coli EH 100 LPS as determined by ELISA” value was “Both bind lipid A and, additionally, two different types of LPS-molecules”.

Consider polymyxin B, for which, in series [1] (setting [12]), the “competition with LALF for lipid A binding” value is recorded as “able to displace LALF almost completely from immobilized lipid A”. Also, in [4], the “competition with LALF for lipid A binding in the presence of 10% serum” value is on record as “also inhibiting in the presence of 10% serum”. In addition, the “competition of LBP-14 binding to lipid A” value in series [2] is “only weak competition activity at the highest concentration used”. The “inhibition of LPS-mediated gelling of Limulus amebocyte lysate” value in [9] is recorded as “inhibit the assays”. In addition, the “competition with LBP for lipid A binding” value in [10] is “not able to compete with LBP for binding to lipid A”. For the same compound, the “inhibition of TNF release” value in series [11] was 95%.

Source of the values: patent US6384188B1, “Lipopolysaccharide-binding and neutralizing peptides” (Dana-Farber Cancer Institute, Inc., priority 1993, dated 2002).
